According to patent publication US20100196476A1, “PROCESS FOR THE PREPARATION AND PHARMACEUTICAL FORMULATIONS FOR 4-QUINOLINONES AND QUINOLINES AND USE THEREOF” (FUNDACAO UNIVERSIDADE FEDERAL DE SAO CARLOS, priority 2007, published 2010):

Experiments:
[1] = target: T1, Asp49 BthTX-II phospholipase A2 (Bothrops jararacussu, UniProt P45881); experiment: myotoxic activity in mice, BthTX-II; type: in vivo, B. jararacussu
T1 construct: isolated myotoxins (BthTX-I and II); from tissue; host or cells: venom of B. jararacussu
T1 sequence (P45881 17-138): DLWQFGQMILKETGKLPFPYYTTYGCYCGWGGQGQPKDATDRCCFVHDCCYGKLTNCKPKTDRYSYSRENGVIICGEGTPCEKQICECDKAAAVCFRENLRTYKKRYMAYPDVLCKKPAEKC

[2] = target: T2, Lys49 BthTX-I phospholipase A2 (Bothrops jararacussu, UniProt Q90249); experiment: myotoxic activity in mice, BthTX-I; type: in vivo, B. jararacussu
T2 construct: isolated myotoxins (BthTX-I and II); from tissue; host or cells: venom of B. jararacussu

[3] = target: T3, Class III metalloprotease BjussuMP-I (Bothrops jararacussu, UniProt Q1PHZ4); experiment: proteolytic activity in casein, BjussuMP-I; type: biochemical, B. jararacussu; details: ratio of 1:10 protease:inhibitor (m/m)
T3 construct: BjussuMP-I isolated from B. jararacussu; from tissue; host or cells: venom of B. jararacussu
T3 sequence (Q1PHZ4 134-547): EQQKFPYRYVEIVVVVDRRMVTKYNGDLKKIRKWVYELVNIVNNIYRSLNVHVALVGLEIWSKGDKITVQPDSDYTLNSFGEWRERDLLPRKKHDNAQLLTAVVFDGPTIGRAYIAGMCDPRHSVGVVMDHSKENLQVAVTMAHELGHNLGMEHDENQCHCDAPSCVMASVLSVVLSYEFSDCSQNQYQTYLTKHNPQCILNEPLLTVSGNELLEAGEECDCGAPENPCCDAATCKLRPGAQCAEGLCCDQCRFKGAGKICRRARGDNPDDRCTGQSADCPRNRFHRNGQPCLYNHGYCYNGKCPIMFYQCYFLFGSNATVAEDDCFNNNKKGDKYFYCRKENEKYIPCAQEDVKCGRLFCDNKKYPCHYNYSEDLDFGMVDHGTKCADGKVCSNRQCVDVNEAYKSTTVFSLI

T2 sequence (Q90249 17-137 limits assumed): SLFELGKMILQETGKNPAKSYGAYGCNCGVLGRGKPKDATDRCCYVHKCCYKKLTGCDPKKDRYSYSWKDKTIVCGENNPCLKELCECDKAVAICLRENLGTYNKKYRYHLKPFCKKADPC

COc1ccc2[nH]c(CO)cc(=O)c2c1 [Compound 2, 2-hydroxymethyl-6-methoxy-1,4-dihydro-4-quinolinone]
effect on myotoxic activity [1]: inhibited
effect on myotoxic activity [2]: inhibited
inhibition of proteolytic activity [3]: ~70%
